Some test systems named below: UACC-62; CCRF-CEM; U-251; SR; EKVX; OVCAR-4; SNB-75; UO-31; Malme-3M; LOX IMVI; TK-10; SF-539; NCI-H23; SF-295; CAKI-1; HOP-92; HL-60; M14; MCF7.
Common to all, as to assay: growth of human tumour cells (NCI), 48 h

The structures appear in SMILES notation.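 In this assay, cells in 96-well plates receive the compound at five concentrations for 48 hours. Endpoints are linearly interpolated between the surrounding concentrations. GI50 = concentration required for 50% inhibition of growth.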 Active and inactive are the calls of the source. Cut-off read from the data, not from the text of the source: active = GI50 up to about 1.1 µM and inactive = higher. Bounds are passed on as bounds.

`Fc1cccc(Cl)c1C1SCc2nc3ccccc3n21` (stereo not given): the GI50 is 15.7 µM (inactive) in the assay with UACC-62; 25.3 µM (inactive) with CCRF-CEM; 27.2 µM (inactive) in the assay on U-251; 17.3 µM (inactive) in the assay with SR; 26.4 µM (inactive) in the assay with EKVX; 31.6 µM (inactive) in the assay with OVCAR-4. Moreover, the GI50 is 38.5 µM (inactive) in the assay with SNB-75; 27.9 µM (inactive) with UO-31; 14.8 µM (inactive) with Malme-3M; 17.3 µM (inactive) in the assay with LOX IMVI; 57 µM (inactive) in the assay with TK-10; 22.8 µM (inactive) in the assay with SF-539. The GI50 with NCI-H23 is 24.3 µM (inactive); with SF-295 it was 23.7 µM (inactive); in the assay with CAKI-1 it was 27.1 µM (inactive); with HOP-92 it was 6.62 µM (inactive); in the assay with HL-60, 11 µM (inactive); with M14, 34 µM (inactive).

Consider `COc1cc(OC)c2c(O)cc(CC(C)O)cc2c1` (stereo not given), for which the GI50 with UACC-62 is > 100 µM (inactive); with CCRF-CEM, > 100 µM (inactive); in the assay on U-251, 91.4 µM (inactive); in the assay with SR it was > 100 µM (inactive); in the assay with EKVX, > 100 µM (inactive); with OVCAR-4, > 100 µM (inactive). Moreover, the GI50 with SNB-75, in the assay with UO-31, in the assay with Malme-3M, in the assay on LOX IMVI, with TK-10 and in the assay on SF-539 was > 100 µM (inactive) in each case. For the same molecule, the GI50 with NCI-H23 is > 100 µM (inactive); with SF-295, > 100 µM (inactive); in the assay on CAKI-1, > 100 µM (inactive); with HOP-92, > 100 µM (inactive); with HL-60, 78.9 µM (inactive); in the assay on M14, > 100 µM (inactive).

As to `CN1CCCS/C1=C1/SC(=S)N(c2ccccc2)C1=O`, the GI50 in the assay on UACC-62, in the assay on CCRF-CEM, with U-251, in the assay on SR, with EKVX and with OVCAR-4 was > 100 µM (inactive) each time. The GI50 in the assay with SNB-75, in the assay with UO-31, with Malme-3M, with LOX IMVI, with TK-10 and with SF-539 was > 100 µM (inactive) in each case. The GI50 in the assay on NCI-H23, with SF-295, in the assay on CAKI-1, with HOP-92, in the assay on HL-60 and in the assay with M14 was > 100 µM (inactive) throughout.

Regarding `NC(CCCNc1ccc(O)cc1)C(=O)O` (stereo not given), the GI50 in the assay with UACC-62 is 18.5 µM (inactive); in the assay on CCRF-CEM it was 23.4 µM (inactive); in the assay with U-251, > 100 µM (inactive); in the assay with SR it was 25.3 µM (inactive); in the assay on EKVX, 38.8 µM (inactive); with OVCAR-4, 17.6 µM (inactive). In addition, the GI50 with SNB-75 is 42.5 µM (inactive); with UO-31, > 60 µM (inactive); in the assay on Malme-3M it was > 56.1 µM (inactive); in the assay with LOX IMVI it was 18.5 µM (inactive); in the assay with TK-10 it was > 63.2 µM (inactive); in the assay with SF-539, 35.2 µM (inactive). Further, the GI50 was 97.9 µM (inactive) in the assay with NCI-H23; > 100 µM (inactive) with SF-295; 48.2 µM (inactive) with CAKI-1; 26.5 µM (inactive) with HOP-92; 19.8 µM (inactive) in the assay with HL-60; 31.8 µM (inactive) in the assay on M14.

`N#Cc1sc2c(c1O)c(=O)n(-c1ccccc1)c(=S)n2-c1ccccc1`: the GI50 in the assay on UACC-62 is > 100 µM (inactive); in the assay with CCRF-CEM it was > 10 µM (inactive); in the assay on U-251, > 100 µM (inactive); in the assay with SR it was > 100 µM (inactive); with OVCAR-4, > 100 µM (inactive); in the assay with SNB-75, > 100 µM (inactive). In addition, the GI50 with UO-31, with Malme-3M, in the assay on LOX IMVI, with TK-10, in the assay with MCF7 and in the assay with NCI-H23 was > 100 µM (inactive) in each case. For the same molecule, the GI50 with SF-295, with HOP-92, with HL-60 and in the assay on M14 was > 100 µM (inactive) throughout.

`CCC1=CC2CN3CCc4c([nH]c5ccccc45)C(C(=O)OC)(C2)C13` (stereo not given): the GI50 in the assay with UACC-62 is 37.8 µM (inactive); in the assay with CCRF-CEM, 50.5 µM (inactive); in the assay with U-251 it was 7.26 µM (inactive); in the assay on EKVX, 36.7 µM (inactive); in the assay on OVCAR-4, 37.2 µM (inactive); with SNB-75 it was 48.4 µM (inactive). Besides, the GI50 in the assay on UO-31 is 32.2 µM (inactive); with Malme-3M, 50.4 µM (inactive); in the assay on LOX IMVI, 61.8 µM (inactive); in the assay on SF-539, 50.9 µM (inactive); in the assay on MCF7, 44.6 µM (inactive); in the assay on NCI-H23 it was 45.6 µM (inactive). Besides, the GI50 with SF-295 is 45.2 µM (inactive); with CAKI-1 it was 20.8 µM (inactive); in the assay on HOP-92, 12.4 µM (inactive); in the assay with HL-60 it was 36.7 µM (inactive).

Regarding `CN1Cc2ccccc2C2(COc3ccccc3C2=O)C1` (stereo not given), the GI50 in the assay on UACC-62 is > 100 µM (inactive); with CCRF-CEM it was 74.3 µM (inactive); with U-251 it was > 100 µM (inactive); in the assay with SR, 31.8 µM (inactive); with EKVX, > 100 µM (inactive); in the assay with OVCAR-4 it was 92.3 µM (inactive). Moreover, the GI50 was > 100 µM (inactive) in the assay on SNB-75; 57.4 µM (inactive) in the assay with UO-31; > 100 µM (inactive) in the assay on Malme-3M; > 100 µM (inactive) in the assay on LOX IMVI; > 100 µM (inactive) with TK-10; > 100 µM (inactive) with SF-539. In addition, the GI50 in the assay with NCI-H23 is > 100 µM (inactive); in the assay on SF-295 it was > 100 µM (inactive); in the assay with CAKI-1, > 100 µM (inactive); with HOP-92 it was 20 µM (inactive); with HL-60 it was 48.9 µM (inactive); in the assay on M14, > 100 µM (inactive).

Turning to `Cn1cc2ccccc2c1-c1nc(F)nc(Nc2ccc(N)cc2)n1`, the GI50 with CCRF-CEM is 12.7 µM (inactive); in the assay on U-251 it was 8.28 µM (inactive); with SR, 16.8 µM (inactive); with EKVX it was 23.3 µM (inactive); in the assay with OVCAR-4, 23.1 µM (inactive); with SNB-75, 11.9 µM (inactive). Besides, the GI50 in the assay with UO-31 is 17.3 µM (inactive); in the assay on Malme-3M it was 14.4 µM (inactive); in the assay on LOX IMVI, 12.4 µM (inactive); in the assay with TK-10 it was 34.3 µM (inactive); with SF-539 it was 15.8 µM (inactive); with NCI-H23 it was 15.8 µM (inactive). For the same molecule, the GI50 with SF-295 is 16.2 µM (inactive); in the assay with CAKI-1 it was 15 µM (inactive); with HOP-92, 15.1 µM (inactive); in the assay with HL-60, 22.3 µM (inactive); in the assay on M14 it was 13.6 µM (inactive).

For the molecule `COc1cccc2c1C(=O)c1c(O)c3c(c(O)c1C2=O)C[C@](O)(C(=O)CO)CC3OC1CC(N)C(OC2CCCCO2)C(C)O1` (stereo not given in full), the GI50 with UACC-62 was 0.208 µM (active); in the assay on CCRF-CEM, < 0.0375 µM (active); in the assay with U-251, 0.0658 µM (active); in the assay on EKVX it was 0.916 µM (active); in the assay with OVCAR-4, 0.659 µM (active); with SNB-75, 0.243 µM (active). Besides, the GI50 with UO-31 is 1.48 µM (inactive); in the assay on Malme-3M, 0.0752 µM (active); with LOX IMVI, 0.232 µM (active); with SF-539, 0.123 µM (active); in the assay with MCF7 it was 0.0311 µM (active); in the assay on NCI-H23, 0.051 µM (active). Further, the GI50 in the assay with SF-295 is 0.0483 µM (active); in the assay with CAKI-1, 0.0353 µM (active); in the assay on HOP-92, 0.239 µM (active); in the assay with HL-60 it was < 0.01 µM (active).

`COc1cccc2c1C(=O)c1c(O)c3c(c(O)c1C2=O)C[C@@](O)(C(=O)CO)CC3OC1CC(NCCCC(OC(C)=O)OC(C)=O)C(O)C(C)O1` (stereo not given in full): the GI50 in the assay with UACC-62 is 0.000861 µM (active); with CCRF-CEM, 0.00212 µM (active); in the assay on U-251, 0.00308 µM (active); in the assay with SR, < 0.0001 µM (active); with EKVX, 0.00277 µM (active); with OVCAR-4, 0.00151 µM (active). The GI50 in the assay on SNB-75 is 0.0015 µM (active); with UO-31 it was 0.00151 µM (active); in the assay on Malme-3M, 0.00209 µM (active); with LOX IMVI it was 0.000233 µM (active); with TK-10, 0.00641 µM (active); with SF-539, 0.00229 µM (active). Also, the GI50 in the assay with NCI-H23 was 0.00182 µM (active); with SF-295, 0.00147 µM (active); in the assay with CAKI-1 it was 0.00296 µM (active); in the assay on HOP-92 it was 0.00277 µM (active); with HL-60 it was 0.00212 µM (active); in the assay on M14 it was 0.000867 µM (active).

Consider `Nc1ncnc2c(C3OC(CO)C(O)C3O)n[nH]c12` (stereo not given), for which the GI50 in the assay on UACC-62 was 1.4 µM (inactive); in the assay with U-251, 2.53 µM (inactive); with EKVX, 0.0646 µM (active); with OVCAR-4 it was 0.582 µM (active); with SNB-75 it was 0.196 µM (active); with UO-31, 0.0551 µM (active). For the same molecule, the GI50 in the assay on Malme-3M was 0.432 µM (active); with LOX IMVI, 0.0647 µM (active); in the assay with SF-539, 0.46 µM (active); in the assay with MCF7 it was 0.0698 µM (active); in the assay on NCI-H23, 1.12 µM (inactive); in the assay with SF-295 it was 0.427 µM (active). Besides, the GI50 in the assay on HOP-92 was 0.0513 µM (active); in the assay on HL-60 it was 0.045 µM (active).

On to `COc1ccc(-c2cc(O)c3cccnc3n2)cc1`, for which the GI50 in the assay on UACC-62 is 23.2 µM (inactive); in the assay on CCRF-CEM, 28.1 µM (inactive); in the assay on EKVX, > 100 µM (inactive); in the assay with OVCAR-4 it was 67.6 µM (inactive); in the assay with UO-31 it was 54.6 µM (inactive); with Malme-3M, 31.9 µM (inactive). In addition, the GI50 with LOX IMVI was 28.1 µM (inactive); in the assay with TK-10 it was 44.4 µM (inactive); with SF-539, 42.4 µM (inactive); with MCF7, 19 µM (inactive); with NCI-H23, 34.7 µM (inactive); in the assay on CAKI-1, 17.9 µM (inactive). Also, in the assay on M14, the GI50 is 28.3 µM (inactive).

The record behind these values is ChEMBL document CHEMBL1201862, “PubChem BioAssay data set” (2004).
